# Measurements from patent US5175156A, “Chromic picolinate treatment” (Nutrition 21, priority 1991, dated 1992).
# Where “and” joins values, the source holds several entries; their conditions need not be identical. Identical values can stand only once. Entries after “also recorded” stand apart in the source; their conditions may differ.
# Tests used:
# [1] = Anabolic effect in male university students in weight training (Example 5); type: in vivo, human
# Method: This study was performed to evaluate the anabolic effect of chromic tripicolinate in male subjects.
# At the start of the study, 10 male university students enrolled in weight training classes, were given, at random, a 40-day supply of capsules that contained either placebo (5 mg of calcium phosphate) or chromic tripicolinate ([…] chromic tripicolinate admixed with 5 mg of calcium phosphate, which provided 200 ug of chromium). The identity of the capsules was known only to an individual who was not in any way involved in the study. During the 40-day period, each of the volunteers followed a prescribed weight lifting protocol for a total of 3 hours per week. Measurements taken at the beginning and again at the end of the study included various skin-fold thicknesses, biceps and calf circumferences, and body weight. Percent body fat was derived from the sum of the triceps, subscapular and chest skinfolds. Lean body mass was derived from anthropometrically-determined percent body fat: weight-(weight×percent body fat).
# [2] = system: adult onset diabetes mellitus (AODM)
# Method: Eleven subjects with adult onset diabetes mellitus (AODM), participated in this study. These subjects had hemoglobin A1 C concentrations greater than 9.0 and were on stable doses of oral hypoglycemic agents for four months. […] The dose of oral agent remained constant during the study.
# The following parameters: Cholesterol, HDL, LDL, and hemoglobin A1 C were tested initially, and at the end of each half of the study. Fasting blood sugars, blood pressure, weight and temperature were tested initially; at three weeks; and at the end of the study.
# Glycosylated hemoglobin was measured by a modification of the method of Clegg and Schroeder (Clegg, et al. J. Lab Clin. Med., 102:577-589, (1983)), using a Fast Hemoglobin Minicolumn, available from Isolab; Akron, Ohio, U.S.A.). Normal values are 5.5 to 7.5%. Fasting glucoses were measured by finger stick glucometer readings (using an Accucheck II from Boehringer Mannheim, Indianapolis, Ind., U.S.A.).
# Split samples of cholesterol were sent to laboratories for analysis. Split samples of apolipoproteins were analyzed on a Beckman Array protein analyzer that was standardized by the Center for Disease Control, Atlanta, Georgia, U.S.A., using Lipid Research Clinic Guidelines (see J. A. M. A. 251: 351, (1984) and J. A. M. A. 251: 365, (1984)).
# For EXAMPLE 4, summary statistics are expressed as the mean ± standard error of the mean (SEM). Split-plot analyses of variance were used to assess treatment effects on the various parameters in the cross-over studies of variance (see Hills, et al., Br. J. Clin. Pharmacol. 8:7-20, (1979)). Correlation analysis was performed with a linear regression curve-fitting program.
# [3] = Oral toxicity experiment in rats (Example 2); type: in vivo
# Method: In a toxicity experiment, rats weighing a mean of 223.4 g were given an oral suspension of 100 mg, 300 mg and 500 mg chromic tripicolinate in water. […] The tests were stopped at 500 mg because it was impossible to obtain a workable suspension beyond this level.
# [4] = in vivo
# Method: Subjects for the study were obtained after screening a group of volunteers. Thirty-two volunteers age 25-80 with total cholesterol levels of 5.7-8.3 mmoles/l (220-320 mg/dl) were initially chosen. […] None of the subjects was using beta blockers, thiazide diuretics, steroids, chromium supplements or any investigational drugs. The volunteers were requested not to alter dietary or exercise habits during the course of the study. Informed consent was obtained and the subjects were paid a stipend for their participation.
# For the double-blind, cross-over study, subjects were divided randomly into two treatment groups by a non-participant. During each half of the study participants ingested gelatin capsules that contained either chromic tripicolinate or a placebo. The chromic tripicolinate supplement contained 1.6 mg chromium tripicolinate (200 micrograms Cr^+3) mixed with 5 mg calcium phosphate. The placebo contained only 5 mg calcium phosphate. The study consisted of two 42-day periods with a 14-day period off capsules between treatments. Compliance by subjects was monitored by capsule count.
# At the beginning, after three weeks and at the end of each period, heart rate, blood pressure, weight and temperature were measured and a fasting-blood sample was drawn. Serum parameters measured included total cholesterol, LDL-cholesterol, HDL-cholesterol, triglycerides, apolipoprotein A1 and apolipoprotein B. Serum concentrations of cholesterol and triglycerides were determined with an Olympus 500 Automated Colormetric System (Olympus Instrument Co., Los Angeles, Calif., U.S.A.). HDL-cholesterol was assayed with an enzyme heparin-manganese chloride precipitation method (Albers et al., Clin Chem., 1978; 24:853-856). LDL-cholesterol was estimated by the method of Friedwald (Friedwald, Clin Chem., 1972; 18:499-502). Concentrations of apolipoprotein A1 and apolipoprotein B in serum were assayed with a nephelometric immunoassay (Naito, J. Clin. Immunol.. 1986; 9:110-120) using a Boehringer laser kit.
# For statistical analysis of the measurements made in this study, the values obtained at the beginning and at the end of each 42-day period were used. Because each subject served as its own control, paired t tests were used to identify statistically significant differences between mean values of changes and differences in changes. Student's t test and p values were determiend with the program WORMSTAT™ (available from Small Business Computers, New England, Conn., U.S.A.).
# [5] = Absorption of orally administered chromium-51 compounds, radioactivity in liver and kidney (Example 1); conditions: rat; for Total radioactivity in tissue, Kidney / Total radioactivity in tissue, Liver: 150 ng oral gavage, 120 h after administration
# Method: In this example, chromic tripicolinate was first synthesized by combining 3.66 grams of picolinic acid (Sigma Chemical, St. Louis) and 2.66 grams of chromic chloride with 20 ml. of deionized water. The solution was heated with stirring for 15 minutes after which the contents were placed in a refrigerator overnight to obtain maximum crystalization. The supernatant was removed by vacuum filtration followed by recrystalization from hot deionized water. To synthesize chromic (chromium-51) tripicolinate, 0.12 micromoles recrystalized picolinic acid was added to a solution containing 0.03 micromoles of chromic (Cr^51) chloride in 5.0 ml. acetate buffer, pH 5.0. The solution was stirred for 30 minutes at 90° C., cooled and subsequently reheated for 30 minutes at 90° C. The solution was cooled to room temperature before use.
# Each of four male Sprague-Dawley rats weighing 125-150g was given an oral dose of 150 ng. chromic (Cr-51) picolinate in 0.51 ml. by gavage tube. An identical quantity of Cr-5I as chloride in acetate buffer was also administered to each of four rats. […] One hundred twenty hours after oral administration of the two forms of labeled chromium, each of the rats was killed by exsanguination after which the liver and kidneys were removed and cut into 1.0 g portions for assay of radioactivity content.
# [6] = system: Glucose Tolerance Factor activity; assay: Glucose Tolerance Factor activity; conditions: no data given
# [7] = system: serum lipid parameters; assay: Double-blind cross-over human study, serum lipid parameters (Example 3); type: in vivo
# Method: Chromium tripicolinate was synthesized by first dissolving 2.66 g CrCl3.6 H2 O in 25 ml warm (60° C.), deionized water. Thereafter, 3.69 g picolinic acid (Sigma Chemical, St. Louis, Mo., U.S.A.) was added and the contents were stirred with gentle heating until the solution turned purple and crystals began to form. The solution was then left standing at 4° C. overnight. The supernatant was then discarded and the crystals were airdried at room temperature.
# The placebo contained only 5 mg calcium phosphate. […] Compliance by subjects was monitored by capsule count. The foregoing study protocol is illustrated in FIG. 1.
# [8] = system: insulin and insulin receptors; assay: Binding to insulin and insulin receptors; conditions: no data given
# [9] = in vivo; cited from earlier work
# [10] = 6 weeks Cr supplementation, 11 AODM subjects, mean ± SEM
# [11] = 6 weeks Cr supplementation, 11 AODM subjects, mean ± SEM, significant difference from placebo, p <0.05
# [12] = 28 subjects, mean ± SD, 42 days
# [13] = 28 subjects, mean ± SD, 42 days, listed as Chromic Tripicolinate
# [14] = 28 subjects, mean ± SD, start of 42-day period
# [15] = combined results, 42 days, p<0.001
compound,measurement,setting,value
chromic tripicolinate,"calculated lean body mass, increase","[1]; 40 days, 200 ug chromium, P=0.017",1.6 kg
same,"calf circumference, increase","[1]; 40 days, 200 ug chromium, P=0.029",1.15±0.67 cm
same,"body weight, increase","[1]; 40 days, 200 ug chromium, P=0.0325",2.18 ± 1.34 kg
same,increase in lean body mass compared with placebo group,"[1]; Student's t test, P=0.0198",significantly greater
same,Cholesterol,[2]; [10],211.4
same,HDL,[2]; [10],52.3
same,LDL,[2]; [10],139.5
same,Fasting Bld Sugar,[2]; [11],162.2
same,Hemoglobin A1 C,[2]; [11],10.4
same,"HDL, trend in words",[2]; P was not <0.05,trends were favorable
same,"cholesterol, trend in words",[2]; P was not <0.05,trends were favorable
same,"fasting glucose, change in words",[2]; diabetic subjects,significant decreases
same,"glycosylated hemoglobin, change in words",[2]; diabetic subjects,significant decreases
same,"Blood Pressure, first figure","[2]; human, in vivo",132.9
same,"Blood Pressure, second figure","[2]; human, in vivo",72.4
same,Heart Rate,"[2]; human, in vivo",70.1
same,Temperature,"[2]; human, in vivo",97.8 °F
same,"blood pressure, change in words","[2]; human, in vivo",no significant changes
same,"heart rate, change in words","[2]; human, in vivo",no significant changes
same,"temperature, change in words","[2]; human, in vivo",no significant changes
same,"weight, change in words","[2]; human, in vivo",no significant changes
same,"LDL, decrease",[2]; treatment versus placebo (FIG. 9),8%
same,human dose before any effects would be observed,"[3]; 70 Kg human, extrapolated from rats",greater than 156 grams
same,oral lethal dose,"[3]; rats, mean 223.4 g, oral suspension in water",> 2200 mg/kg
same,deaths,"[3]; rats, oral 100 mg, 300 mg and 500 mg",No deaths occurred
same,"blood pressure, change in words",[4],No significant changes
same,"heart rate, change in words",[4],No significant changes
same,subjects who developed a fine rash about their forearms,[4],one
same,subjects who developed mouth ulcers,[4],one
same,"temperature, change in words",[4],No significant changes
same,rate of absorption relative to chromic chloride,"[5]; in vivo, po, 7200 min",about 4 times
same,Glucose Tolerance Factor activity,[6],has Glucose Tolerance Factor activity
same,"Apo B, change","[7]; 28 subjects, 42 days, p = .001",-25 mg/dL
same,"Apo A, change","[7]; 28 subjects, 42 days, p = .003",+16 mg/dl
same,"apolipoprotein B, reduction","[7]; 28 subjects, 42 days, p=0.001",16%
same,"LDL-cholesterol, final","[7]; 28 subjects, after 42 days",178 mg/dL
same,"LDL-cholesterol, initial","[7]; 28 subjects, before 42 days",200 mg/dL
same,"Apo A, final",[7]; [12],163 ± 31 mg/dL
same,"Apo B, final",[7]; [12],130 mg/dL
same,"Cholesterol Total, final",[7]; [12],256 mg/dL
same,"LDL, final",[7]; [12],5.1 mmol/L
same,"Cholesterol Total, final","[7]; 28 subjects, mean ± SD, 42 days, 200 micrograms Cr daily",6.6 mmol/L
same,"Cholesterol Total, final","[7]; 28 subjects, mean ± SD, 42 days, 200 micrograms Cr daily, listed as Chromic Tripicolinate",6.6 ± 1.0 mmol/L
same,"Apo B, final",[7]; [13],130 ± 45 mg/dL
same,"Cholesterol Total, final",[7]; [13],256 ± 41 mg/dL
same,"Apo A, initial",[7]; [14],147 ± 28 mg/dL
same,"Apo B, initial",[7]; [14],155 mg/dL
same,"LDL, initial",[7]; [14],5.7 mmol/L
same,"Apo B, initial","[7]; 28 subjects, mean ± SD, start of 42-day period, listed as Chromic Tripicolinate",155 ± 50 mg/dL
same,"serum HDL-cholesterol, change in words","[7]; 28 subjects, p>0.05",increased slightly but not significantly
same,"LDL-cholesterol, decrease",[7]; 42 days,10% and 10.5%
same,"Total cholesterol concentration, decrease",[7]; 42 days,7%
same,"serum triglycerides, change in words",[7]; 42 days,No significant changes
same,"LDL-cholesterol, change in words",[7]; [15],decreased significantly; also recorded: significant (p<0.001) reductions
same,"total cholesterol, change in words",[7]; [15],decreased significantly; also recorded: significant (p<0.001) reductions
same,"apolipoprotein B, change in words","[7]; combined results, 42 days, p=0.001",significant reduction; also recorded: decreased significantly
same,"apolipoprotein A1, change in words","[7]; combined results, 42 days, p=0.003",significant elevation; also recorded: significantly elevated
same,"LDL-cholesterol, change in words","[7]; final 42 days, placebo-first group, p=0.003",decreased significantly
same,"total cholesterol, change in words","[7]; final 42 days, placebo-first group, p=0.009",decreased significantly
same,"apolipoprotein B, change in words","[7]; first 6-week period, subjects starting with chromic tripicolinate, p=0.003",significantly decreased
same,"total cholesterol, change in words","[7]; first 6-week period, subjects starting with chromic tripicolinate, p=0.007",significantly decreased
same,"LDL-cholesterol, change in words","[7]; first 6-week period, subjects starting with chromic tripicolinate, p=0.015",significantly decreased
same,"apolipoprotein A1, change in words","[7]; first 6-week period, subjects starting with chromic tripicolinate, p=0.047",significantly elevated
same,subjects with decreased LDL-cholesterol,[7]; of 28 subjects,20
same,subjects with elevated cholesterol,[7]; of 28 subjects,4
same,subjects with lower total cholesterol,[7]; of 28 subjects,22
same,subjects with unchanged LDL-cholesterol,[7]; of 28 subjects,3
same,subjects with unchanged total cholesterol,[7]; of 28 subjects,2
same,"apolipoprotein B, change in words","[7]; placebo-first group, after chromic tripicolinate, p=0.072","decreased, but not significantly"
same,"apolipoprotein A1, change in words","[7]; placebo-first group, chromic tripicolinate period, p=0.007",increased significantly
same,binding to insulin and insulin receptors,[8],binds to insulin and insulin receptors
[Cr] [chromium],"effect of supplementation, result in words",[9],"improvements in glucose tolerance, serum lipid concentrations, including high-density lipoprotein cholesterol, insulin and insulin binding"
"O=C([O-])c1ccccn1.O=C([O-])c1ccccn1.O=C([O-])c1ccccn1.[Cr+3] [Chromic (Cr-51) Picolinate, chromic (chromium-51) tripicolinate]","Total radioactivity in tissue, Kidney",[5],157525 CPM
same,"Total radioactivity in tissue, Liver",[5],115075 CPM
"[Cl][51Cr]([Cl])[Cl] [Chromic (Cr-51) Chloride, chromic (Cr^51) chloride, reference compound]","Total radioactivity in tissue, Kidney",[5],39030 CPM
same,"Total radioactivity in tissue, Liver",[5],30050 CPM
"[Cl][Cr]([Cl])[Cl] [chromic chloride, reference compound]","effect of supplementation, result in words",[9],improvements of risk factors associated with maturity-onset diabetes and cardiovascular diseases
